Reference: US9079913B2, “Spiro-oxindole MDM2 antagonists” (The Regents of the University of Michigan, priority 2009, dated 2015)
Read-outs that look alike come from different tables or passages of the source.

Columns and labels:
[1] = Pharmacokinetic studies in rats; assay type: in vivo, rat; conditions: for % F / Cmax / T1/2 / AUC(0-t) / bioavailability / half-life: male rats; for oral bioavailability / oral pharmacokinetics in rats (in words): oral dosing
Experimental: Pharmacokinetic studies on MDM2 inhibitors were carried out in rat. For comparison, the MDM2 inhibitor, AT-219, was also studied.

[2] = In vitro microsomal stability, rat; assay type: in vitro ADME; conditions: for microsomal stability (in words) / % of compound remaining when incubated in rat liver microsomes with NADPH: rat liver microsomes; for Microsomal stability, % remaining: Rat Microsome, same batch; for half-life: rat, liver microsomes, rat liver microsomes with NADPH
[3] = system: cancer cell lines with wild-type p53 / mutated or deleted p53 (ATCC); assay: Cell growth assay (WST-8), other cancer cell lines; assay type: cell-based; conditions: Homo sapiens
[4] = In vitro microsomal stability, human; assay type: in vitro ADME; conditions: for Microsomal stability, % remaining: Human Microsome, same batch; for half-life: human, liver microsomes, human liver microsomes with NADPH
[5] = system: Isogenic HCT-116 colon cancer cell lines; assay: cells; assay type: cell-based; conditions: Homo sapiens, cell growth;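 also: cells grown in 96-well plates in McCoy's 5A medium with 10% FBS, exposed to compound for 4 days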
Experimental: Cells were seeded in 96-well flat bottom cell culture plates at a density of 2−3×10^3 cells/well with compounds and incubated for 4 days.

[6] = target: recombinant human His-tagged MDM2 protein (residues 1-118) (Homo sapiens (Human), UniProt Q00987); assay: Fluorescence-polarization MDM2 binding assay; conditions: Table 19A; FP binding assay; read-out: MDM2 IC50;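 also: fluorescence polarization read after three hours of incubation in potassium phosphate buffer containing bovine gamma globulin and Triton X-100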
Chain of recombinant human His-tagged MDM2 protein (residues 1-118) (Q00987 1-118): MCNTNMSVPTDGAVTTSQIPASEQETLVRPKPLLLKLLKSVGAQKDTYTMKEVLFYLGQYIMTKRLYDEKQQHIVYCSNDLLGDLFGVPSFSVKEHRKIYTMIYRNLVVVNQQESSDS

[7] = LNCaP, Table 19A, LNCAP cells, p53 wild-type, cell growth, read-out: LNCAP (p53 wild-type) IC50
[8] = PC-3, Table 19A, PC-3 cells, deleted p53, cell growth, read-out: PC-3 (deleted p53) IC50
[9] = rat, plasma, oral dose 15 mg/kg
[10] = rat, plasma, oral dose 15 mg/kg, read-out: AUC(0-t)
[11] = rat, plasma, oral dose 15 mg/kg, read-out: Cmax
[12] = HCT-116, read-out: HCT-116 (p53-/-) IC50, Table 19A, HCT-116 p53-/-
[13] = HCT-116, read-out: HCT-116 (p53 wild-type) IC50, Table 19A, HCT-116 p53 wild-type

CN1CCC(CCNC(=O)C2NC(CC(C)(C)C)C3(C(=O)Nc4cc(Cl)ccc43)C2c2cccc(Cl)c2F)CC1 (stereo not shown) [MI-122]
% F ([1]; oral dose 25 mg/kg): 14% | Cmax ([1]; oral dose 25 mg/kg): 120 ± 112 ng/mL | T1/2 ([1]; oral dose 25 mg/kg): 426 ± 108 min | oral bioavailability / oral pharmacokinetics in rats (in words) [1]: much inferior oral pharmacokinetic parameters | % of compound remaining when incubated in rat liver microsomes ([2]; Table 16, 0 min): 100% | % of compound remaining when incubated in rat liver microsomes ([2]; Table 16, 4 min): 96.3% | % of compound remaining when incubated in rat liver microsomes ([2]; Table 16, 6 min): 95.6% | % of compound remaining when incubated in rat liver microsomes ([2]; Table 16, 10 min): 87.8% | % of compound remaining when incubated in rat liver microsomes ([2]; Table 16, 15 min): 86.5% | % of compound remaining when incubated in rat liver microsomes ([2]; Table 16, 30 min): 82.7% | microsomal stability (in words) [2]: improved rat microsomal stability over MI-219

CN1CCN(CCNC(=O)C2NC(CC(C)(C)C)C3(C(=O)Nc4cc(Cl)ccc43)C2c2cccc(Cl)c2F)CC1 (stereo not shown) [MI-126]
% F ([1]; oral dose 25 mg/kg): 31% | Cmax ([1]; oral dose 25 mg/kg): 274 ± 82 ng/mL | T1/2 ([1]; oral dose 25 mg/kg): 228 ± 30 min | oral bioavailability / oral pharmacokinetics in rats (in words) [1]: much inferior oral pharmacokinetic parameters | % of compound remaining when incubated in rat liver microsomes ([2]; Table 16, 0 min): 100% | % of compound remaining when incubated in rat liver microsomes ([2]; Table 16, 4 min): 88.4% | % of compound remaining when incubated in rat liver microsomes ([2]; Table 16, 6 min): 77.2% | % of compound remaining when incubated in rat liver microsomes ([2]; Table 16, 10 min): 65.6% | % of compound remaining when incubated in rat liver microsomes ([2]; Table 16, 15 min): 62.3% | % of compound remaining when incubated in rat liver microsomes ([2]; Table 16, 30 min): 60.4% | microsomal stability (in words) [2]: improved rat microsomal stability over MI-219

CC(C)(C)C[C@H]1N[C@@H](C(=O)NCCC2CCC(O)C2)[C@H](c2cccc(Cl)c2)[C@@]12C(=O)Nc1cc(Cl)c(F)cc12 (stereo partly shown) [MI-225]
% F ([1]; oral dose 25 mg/kg): 44% | AUC(0-t) ([1]; oral dose 25 mg/kg): 7207 ± 1492 | Cmax ([1]; oral dose 25 mg/kg): 1913 ± 312 ng/mL | T1/2 ([1]; oral dose 25 mg/kg): 90.6 ± 7.2 min | oral bioavailability / oral pharmacokinetics in rats (in words) [1]: good oral bioavailability | % of compound remaining when incubated in rat liver microsomes ([2]; Table 16, 0 min): 100% | % of compound remaining when incubated in rat liver microsomes ([2]; Table 16, 4 min): 63.1% | % of compound remaining when incubated in rat liver microsomes ([2]; Table 16, 6 min): 56.6% | % of compound remaining when incubated in rat liver microsomes ([2]; Table 16, 10 min): 44.4% | % of compound remaining when incubated in rat liver microsomes ([2]; Table 16, 15 min): 30.9% | % of compound remaining when incubated in rat liver microsomes ([2]; Table 16, 30 min): 30.2% | microsomal stability (in words) [2]: inferior microsomal stability to MI-219

CC(C)(C)C[C@H]1N[C@@H](C(=O)NCC[C@H](O)CNC(C)(C)C)[C@H](c2cccc(Cl)c2)[C@@]12C(=O)Nc1cc(Cl)c(F)cc12 [MI-519-24]
IC50 [3, 7]: < 3 µM | IC50 [3, 8]: 3.7 ± 0.2 µM | Microsomal stability, % remaining ([4]; 0 min): 100.00% | Microsomal stability, % remaining ([4]; 5 min): 57.08% | Microsomal stability, % remaining ([4]; 10 min): 53.92% | Microsomal stability, % remaining ([4]; 15 min): 49.62% | Microsomal stability, % remaining ([4]; 30 min): 47.41% | Microsomal stability, % remaining ([4]; 45 min): 41.18% | Microsomal stability, % remaining ([4]; 60 min): 41.42% | % of compound remaining when incubated in human liver microsomes with NADPH ([4]; human liver microsomes, 0 min): 100.00% | % of compound remaining when incubated in human liver microsomes with NADPH ([4]; human liver microsomes, 5 min): 57.08% | % of compound remaining when incubated in human liver microsomes with NADPH ([4]; human liver microsomes, 10 min): 53.92% | % of compound remaining when incubated in human liver microsomes with NADPH ([4]; human liver microsomes, 15 min): 49.62% | % of compound remaining when incubated in human liver microsomes with NADPH ([4]; human liver microsomes, 30 min): 47.41% | % of compound remaining when incubated in human liver microsomes with NADPH ([4]; human liver microsomes, 45 min): 41.18% | % of compound remaining when incubated in human liver microsomes with NADPH ([4]; human liver microsomes, 60 min): 41.42% | half-life [4]: 11.2 min | oral bioavailability / oral pharmacokinetics in rats (in words) [1]: much inferior oral pharmacokinetic parameters | bioavailability [1, 9]: 1.1% | half-life [1, 9]: 192 ± 84 min | AUC(0-t) [1, 10]: 101 ± 62 µg·h/mL | Cmax [1, 11]: 35 ± 23 ng/mL | IC50 [5, 12]: 6.5 ± 0.7 µM | IC50 [5, 13]: < 2 µM | Microsomal stability, % remaining ([2]; 0 min): 100.00% | Microsomal stability, % remaining ([2]; 5 min): 102.16% | Microsomal stability, % remaining ([2]; 10 min): 86.33% | Microsomal stability, % remaining ([2]; 15 min): 75.72% | Microsomal stability, % remaining ([2]; 30 min): 68.24% | Microsomal stability, % remaining ([2]; 45 min): 66.08% | Microsomal stability, % remaining ([2]; 60 min): 61.51% | microsomal stability (in words) [2]: improved stability over MI-219 | % of compound remaining when incubated in rat liver microsomes with NADPH ([2]; 0 min): 100.00% | % of compound remaining when incubated in rat liver microsomes with NADPH ([2]; 5 min): 102.16% | % of compound remaining when incubated in rat liver microsomes with NADPH ([2]; 10 min): 86.33% | % of compound remaining when incubated in rat liver microsomes with NADPH ([2]; 15 min): 75.72% | % of compound remaining when incubated in rat liver microsomes with NADPH ([2]; 30 min): 68.24% | % of compound remaining when incubated in rat liver microsomes with NADPH ([2]; 45 min): 66.08% | % of compound remaining when incubated in rat liver microsomes with NADPH ([2]; 60 min): 61.51% | half-life [2]: 48.5 min | IC50 [6]: < 2 µM

CC(C)(C)C[C@H]1N[C@@H](C(=O)N[C@H]2CC[C@@H](O)C2)[C@H](c2cccc(Cl)c2)[C@@]12C(=O)Nc1cc(Cl)c(F)cc12 [MI-519-27]
IC50 [3, 7]: < 2 µM | IC50 [3, 8]: > 5 µM | IC50 ([3]; SJSA-1, Table 19A, SJSA-1 cells, p53 wild-type, cell growth, read-out: SJSA-1 (p53 wild-type) IC50): < 3 µM | % of compound remaining when incubated in human liver microsomes with NADPH ([4]; human liver microsomes, 0 min): 100.00% | % of compound remaining when incubated in human liver microsomes with NADPH ([4]; human liver microsomes, 5 min): 52.96% | % of compound remaining when incubated in human liver microsomes with NADPH ([4]; human liver microsomes, 10 min): 25.03% | % of compound remaining when incubated in human liver microsomes with NADPH ([4]; human liver microsomes, 15 min): 11.38% | % of compound remaining when incubated in human liver microsomes with NADPH ([4]; human liver microsomes, 30 min): 2.30% | % of compound remaining when incubated in human liver microsomes with NADPH ([4]; human liver microsomes, 45 min): 1.42% | % of compound remaining when incubated in human liver microsomes with NADPH ([4]; human liver microsomes, 60 min): 0.77% | half-life [4]: 5 min | IC50 [5, 12]: > 10 µM | IC50 [5, 13]: < 2 µM | % of compound remaining when incubated in rat liver microsomes with NADPH ([2]; 0 min): 100.00% | % of compound remaining when incubated in rat liver microsomes with NADPH ([2]; 5 min): 57.28% | % of compound remaining when incubated in rat liver microsomes with NADPH ([2]; 10 min): 31.78% | % of compound remaining when incubated in rat liver microsomes with NADPH ([2]; 15 min): 19.34% | % of compound remaining when incubated in rat liver microsomes with NADPH ([2]; 30 min): 5.81% | % of compound remaining when incubated in rat liver microsomes with NADPH ([2]; 45 min): 2.49% | % of compound remaining when incubated in rat liver microsomes with NADPH ([2]; 60 min): 2.13% | half-life [2]: 6.05 min | IC50 [6]: < 1 µM

CC(C)(C)C[C@H]1N[C@@H](C(=O)NCC[C@H](O)CN2CCCC2)[C@H](c2cccc(Cl)c2)[C@@]12C(=O)Nc1cc(Cl)c(F)cc12 [MI-519-28]
IC50 [3, 7]: < 2 µM | IC50 [3, 8]: 4.1 ± 0.2 µM | Microsomal stability, % remaining ([4]; 0 min): 100.00% | Microsomal stability, % remaining ([4]; 5 min): 91.87% | Microsomal stability, % remaining ([4]; 10 min): 89.02% | Microsomal stability, % remaining ([4]; 15 min): 77.40% | Microsomal stability, % remaining ([4]; 30 min): 66.83% | Microsomal stability, % remaining ([4]; 45 min): 55.85% | Microsomal stability, % remaining ([4]; 60 min): 53.78% | microsomal stability (in words) ([4]; human liver microsomes): improved stability over MI-219 | % of compound remaining when incubated in human liver microsomes with NADPH ([4]; human liver microsomes, 0 min): 100.00% | % of compound remaining when incubated in human liver microsomes with NADPH ([4]; human liver microsomes, 5 min): 91.87% | % of compound remaining when incubated in human liver microsomes with NADPH ([4]; human liver microsomes, 10 min): 89.02% | % of compound remaining when incubated in human liver microsomes with NADPH ([4]; human liver microsomes, 15 min): 77.40% | % of compound remaining when incubated in human liver microsomes with NADPH ([4]; human liver microsomes, 30 min): 66.83% | % of compound remaining when incubated in human liver microsomes with NADPH ([4]; human liver microsomes, 45 min): 55.85% | % of compound remaining when incubated in human liver microsomes with NADPH ([4]; human liver microsomes, 60 min): 53.78% | half-life [4]: 54.1 min | oral bioavailability / oral pharmacokinetics in rats (in words) [1]: much inferior oral pharmacokinetic parameters | bioavailability [1, 9]: 8.4% | half-life [1, 9]: 96 ± 12 min | AUC(0-t) [1, 10]: 419 ± 239 µg·h/mL | Cmax [1, 11]: 102 ± 46 ng/mL | IC50 [5, 12]: > 5 µM | IC50 [5, 13]: < 2 µM | Microsomal stability, % remaining ([2]; 0 min): 100.00% | Microsomal stability, % remaining ([2]; 5 min): 92.34% | Microsomal stability, % remaining ([2]; 10 min): 87.59% | Microsomal stability, % remaining ([2]; 15 min): 86.13% | Microsomal stability, % remaining ([2]; 30 min): 71.97% | Microsomal stability, % remaining ([2]; 45 min): 65.40% | Microsomal stability, % remaining ([2]; 60 min): 61.79% | microsomal stability (in words) [2]: improved stability over MI-219 | % of compound remaining when incubated in rat liver microsomes with NADPH ([2]; 0 min): 100.00% | % of compound remaining when incubated in rat liver microsomes with NADPH ([2]; 5 min): 92.34% | % of compound remaining when incubated in rat liver microsomes with NADPH ([2]; 10 min): 87.59% | % of compound remaining when incubated in rat liver microsomes with NADPH ([2]; 15 min): 86.13% | % of compound remaining when incubated in rat liver microsomes with NADPH ([2]; 30 min): 71.97% | % of compound remaining when incubated in rat liver microsomes with NADPH ([2]; 45 min): 65.40% | % of compound remaining when incubated in rat liver microsomes with NADPH ([2]; 60 min): 61.79% | half-life [2]: 74.6 min | IC50 [6]: < 2 µM
